# Laboratory results reported in US20240254087A1, “SELECTIVE, PARTIAL, AND ARRESTIN-BIASED 5-HT2A AGONISTS WITH UTILITY IN VARIOUS DISORDERS” (Saint Joseph's University, priority 2021, published 2024).
# Entries after “also recorded” stand apart in the source; their conditions may differ.
# Biological target: 5-HT5a (Homo sapiens, UniProt P47898)
# Assay: Competitive radioligand binding (NIMH PDSP)
# Settings: not given
# Chain of 5-HT5a (P47898 whole entry, species assumed): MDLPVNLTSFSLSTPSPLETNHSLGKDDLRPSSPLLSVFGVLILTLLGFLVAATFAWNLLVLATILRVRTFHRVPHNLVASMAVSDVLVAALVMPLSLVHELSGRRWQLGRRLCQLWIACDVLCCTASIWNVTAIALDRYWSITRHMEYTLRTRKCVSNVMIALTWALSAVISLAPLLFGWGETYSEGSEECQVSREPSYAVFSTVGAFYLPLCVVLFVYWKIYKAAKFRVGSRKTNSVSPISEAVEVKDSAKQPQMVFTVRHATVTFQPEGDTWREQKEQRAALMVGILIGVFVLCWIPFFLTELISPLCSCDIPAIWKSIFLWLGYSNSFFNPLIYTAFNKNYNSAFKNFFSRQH
row,Structure (SMILES),Ki
1,"COc1cc([N+](=O)[O-])c(OC)cc1CCN [2C-N (1), 2-(2,5-dimethoxy-4-nitrophenyl)ethan-1-amine, reference compound]",> 10000 nM
2,"COc1cc([N+](=O)[O-])c(OC)cc1CCNCc1cccc2ccccc12 [25N-N-1-Nap (16), [2-(2,5-dimethoxy-4-nitrophenyl)ethyl][(naphthalen-1-yl)methyl]amine]",1100 nM
3,"COc1cc([N+](=O)[O-])c(OC)cc1CCNCc1cccc(F)c1OC [25N-NB-2-MeO-3-F (19), [2-(2,5-dimethoxy-4-nitrophenyl)ethyl][(3-fluoro-2-methoxyphenyl)methyl]amine]",2880 nM
4,"COc1cc([N+](=O)[O-])c(OC)cc1CCNCc1cccc(C)c1O [25N-NB-2-OH-3-Me (18), 2-({[2-(2,5-dimethoxy-4-nitrophenyl)ethyl]amino}methyl)-6-methylphenol]",501 nM
5,"COc1cc([N+](=O)[O-])c(OC)cc1CCNCc1cccc(O)c1 [25N-NB-3-OH (21), 3-({[2-(2,5-dimethoxy-4-nitrophenyl)ethyl]amino}methyl)phenol]",> 10000 nM
6,"COc1cc([N+](=O)[O-])c(OC)cc1CCNCc1ccccc1C(F)(F)F [25N-NBCF3 (14), [2-(2,5-dimethoxy-4-nitrophenyl)ethyl]({[2-(trifluoromethyl)phenyl]methyl}) amine]",> 10000 nM

# Biological target: 5-HT6 (Homo sapiens, UniProt P50406)
# Assay: Competitive radioligand binding (NIMH PDSP)
# Settings: not given
# Chain of 5-HT6 (P50406 whole entry, species assumed): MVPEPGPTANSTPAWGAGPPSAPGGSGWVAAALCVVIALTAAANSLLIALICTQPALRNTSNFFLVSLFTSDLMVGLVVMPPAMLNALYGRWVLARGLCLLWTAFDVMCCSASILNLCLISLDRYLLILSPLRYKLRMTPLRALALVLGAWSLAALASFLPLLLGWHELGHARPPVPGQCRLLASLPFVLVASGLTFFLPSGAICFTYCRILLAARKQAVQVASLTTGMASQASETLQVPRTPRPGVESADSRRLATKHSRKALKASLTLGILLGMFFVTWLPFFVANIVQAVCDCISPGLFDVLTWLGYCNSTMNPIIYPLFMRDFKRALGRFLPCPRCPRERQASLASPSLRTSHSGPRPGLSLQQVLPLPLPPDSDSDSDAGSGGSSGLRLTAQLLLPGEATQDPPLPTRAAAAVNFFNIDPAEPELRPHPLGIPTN
row,Structure (SMILES),Ki
1,"COc1cc([N+](=O)[O-])c(OC)cc1CCN [2C-N (1), 2-(2,5-dimethoxy-4-nitrophenyl)ethan-1-amine, reference compound]",251 nM
2,"COc1cc([N+](=O)[O-])c(OC)cc1CCNCc1cccc2ccccc12 [25N-N-1-Nap (16), [2-(2,5-dimethoxy-4-nitrophenyl)ethyl][(naphthalen-1-yl)methyl]amine]",79.4 nM
3,"COc1cc([N+](=O)[O-])c(OC)cc1CCNCc1cccc(F)c1OC [25N-NB-2-MeO-3-F (19), [2-(2,5-dimethoxy-4-nitrophenyl)ethyl][(3-fluoro-2-methoxyphenyl)methyl]amine]",> 10000 nM
4,"COc1cc([N+](=O)[O-])c(OC)cc1CCNCc1cccc(C)c1O [25N-NB-2-OH-3-Me (18), 2-({[2-(2,5-dimethoxy-4-nitrophenyl)ethyl]amino}methyl)-6-methylphenol]",209 nM
5,"COc1cc([N+](=O)[O-])c(OC)cc1CCNCc1cccc(O)c1 [25N-NB-3-OH (21), 3-({[2-(2,5-dimethoxy-4-nitrophenyl)ethyl]amino}methyl)phenol]",69.2 nM
6,"COc1cc([N+](=O)[O-])c(OC)cc1CCNCc1ccccc1C(F)(F)F [25N-NBCF3 (14), [2-(2,5-dimethoxy-4-nitrophenyl)ethyl]({[2-(trifluoromethyl)phenyl]methyl}) amine]",407 nM

# Biological target: 5-HT7 (Homo sapiens, UniProt P34969)
# Assay: Competitive radioligand binding (NIMH PDSP)
# Settings: not given
# Chain of 5-HT7 (P34969 whole entry, species assumed): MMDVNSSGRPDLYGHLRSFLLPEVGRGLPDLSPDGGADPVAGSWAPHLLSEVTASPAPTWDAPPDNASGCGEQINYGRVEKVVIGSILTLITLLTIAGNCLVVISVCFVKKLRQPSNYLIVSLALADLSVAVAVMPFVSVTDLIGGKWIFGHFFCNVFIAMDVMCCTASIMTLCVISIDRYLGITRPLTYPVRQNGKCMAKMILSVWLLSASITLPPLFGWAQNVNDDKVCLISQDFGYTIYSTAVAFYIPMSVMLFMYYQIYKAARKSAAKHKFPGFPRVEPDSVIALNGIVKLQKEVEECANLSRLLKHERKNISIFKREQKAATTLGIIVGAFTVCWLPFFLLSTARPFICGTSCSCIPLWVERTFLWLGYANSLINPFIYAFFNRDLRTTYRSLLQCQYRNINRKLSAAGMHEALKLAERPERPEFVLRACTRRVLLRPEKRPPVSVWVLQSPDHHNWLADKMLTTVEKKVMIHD
row,Structure (SMILES),Ki
1,"COc1cc([N+](=O)[O-])c(OC)cc1CCN [2C-N (1), 2-(2,5-dimethoxy-4-nitrophenyl)ethan-1-amine, reference compound]",> 10000 nM
2,"COc1cc([N+](=O)[O-])c(OC)cc1CCNCc1cccc2ccccc12 [25N-N-1-Nap (16), [2-(2,5-dimethoxy-4-nitrophenyl)ethyl][(naphthalen-1-yl)methyl]amine]",186 nM
3,"COc1cc([N+](=O)[O-])c(OC)cc1CCNCc1cccc(F)c1OC [25N-NB-2-MeO-3-F (19), [2-(2,5-dimethoxy-4-nitrophenyl)ethyl][(3-fluoro-2-methoxyphenyl)methyl]amine]",> 10000 nM
4,"COc1cc([N+](=O)[O-])c(OC)cc1CCNCc1cccc(C)c1O [25N-NB-2-OH-3-Me (18), 2-({[2-(2,5-dimethoxy-4-nitrophenyl)ethyl]amino}methyl)-6-methylphenol]",871 nM
5,"COc1cc([N+](=O)[O-])c(OC)cc1CCNCc1cccc(O)c1 [25N-NB-3-OH (21), 3-({[2-(2,5-dimethoxy-4-nitrophenyl)ethyl]amino}methyl)phenol]",> 10000 nM
6,"COc1cc([N+](=O)[O-])c(OC)cc1CCNCc1ccccc1C(F)(F)F [25N-NBCF3 (14), [2-(2,5-dimethoxy-4-nitrophenyl)ethyl]({[2-(trifluoromethyl)phenyl]methyl}) amine]",> 10000 nM

# System: male C57BL/6J mice
# Assay: Head-twitch response (HTR) in mice
# Assay type: in vivo, mouse
# Settings: not given
# Procedure, shortened: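 Head twitches in male C57BL/6J mice (6-8 weeks) carrying head-mounted magnets were detected with a magnetometer coil around a 12-cm glass cylinder during the dark phase. Coil signal was low-pass filtered at 2 kHz and digitized at 20 kHz. Counts were analyzed by one-way ANOVA with Dunnett's post hoc test.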
Structure (SMILES),Induction of the HTR in mice (in words),Max HTR response during a 30-min assessment (maximum counts ÷ baseline response)
"COc1cc([N+](=O)[O-])c(OC)cc1CCNCc1cccc2ccccc12 [25N-N-1-Nap (16), [2-(2,5-dimethoxy-4-nitrophenyl)ethyl][(naphthalen-1-yl)methyl]amine]",failed to induce the HTR,1.2-fold increase
"COc1cc([N+](=O)[O-])c(OC)cc1CCNCc1cccc(C)c1O [25N-NB-2-OH-3-Me (18), 2-({[2-(2,5-dimethoxy-4-nitrophenyl)ethyl]amino}methyl)-6-methylphenol]",failed to induce the HTR; also recorded: do not induce the HTR,1.0-fold increase
"COc1cc([N+](=O)[O-])c(OC)cc1CCNCc1cccc(O)c1 [25N-NB-3-OH (21), 3-({[2-(2,5-dimethoxy-4-nitrophenyl)ethyl]amino}methyl)phenol]",inactive in the HTR,1.7-fold increase
"COc1cc([N+](=O)[O-])c(OC)cc1CCNCc1ccccc1C(F)(F)F [25N-NBCF3 (14), [2-(2,5-dimethoxy-4-nitrophenyl)ethyl]({[2-(trifluoromethyl)phenyl]methyl}) amine]",lacked a HTR; also recorded: failed to induce a HTR; also recorded: do not induce the HTR,2.6-fold increase

# Same assay, conditions: Mus musculus, read-out: HTR ED50 mg/kg (95% CI), SC, except DOI and 25D-NBOMe IP
row,Structure (SMILES),ED50
1,"COc1cc([N+](=O)[O-])c(OC)cc1CCNCc1cccc2ccccc12 [25N-N-1-Nap (16), [2-(2,5-dimethoxy-4-nitrophenyl)ethyl][(naphthalen-1-yl)methyl]amine]",> 30 mg/kg
2,"COc1cc([N+](=O)[O-])c(OC)cc1CCNCc1cccc(C)c1O [25N-NB-2-OH-3-Me (18), 2-({[2-(2,5-dimethoxy-4-nitrophenyl)ethyl]amino}methyl)-6-methylphenol]",> 10 mg/kg
3,"COc1cc([N+](=O)[O-])c(OC)cc1CCNCc1cccc(O)c1 [25N-NB-3-OH (21), 3-({[2-(2,5-dimethoxy-4-nitrophenyl)ethyl]amino}methyl)phenol]",> 30 mg/kg
4,"COc1cc([N+](=O)[O-])c(OC)cc1CCNCc1ccccc1C(F)(F)F [25N-NBCF3 (14), [2-(2,5-dimethoxy-4-nitrophenyl)ethyl]({[2-(trifluoromethyl)phenyl]methyl}) amine]",> 30 mg/kg

# Same assay, conditions: listed as 25N—NB-3-HO (21)
row,Structure (SMILES),Induction of the HTR in mice (in words)
1,"COc1cc([N+](=O)[O-])c(OC)cc1CCNCc1cccc(O)c1 [25N-NB-3-OH (21), 3-({[2-(2,5-dimethoxy-4-nitrophenyl)ethyl]amino}methyl)phenol]",do not induce the HTR

# Biological target: 5-HT2A (Homo sapiens, UniProt P28223)
# Assay: cell-based
# Design: expressed in transfected cells; host or cells: HEK293T, transient
# Settings: BRET
# Chain of 5-HT2A (P28223 whole entry): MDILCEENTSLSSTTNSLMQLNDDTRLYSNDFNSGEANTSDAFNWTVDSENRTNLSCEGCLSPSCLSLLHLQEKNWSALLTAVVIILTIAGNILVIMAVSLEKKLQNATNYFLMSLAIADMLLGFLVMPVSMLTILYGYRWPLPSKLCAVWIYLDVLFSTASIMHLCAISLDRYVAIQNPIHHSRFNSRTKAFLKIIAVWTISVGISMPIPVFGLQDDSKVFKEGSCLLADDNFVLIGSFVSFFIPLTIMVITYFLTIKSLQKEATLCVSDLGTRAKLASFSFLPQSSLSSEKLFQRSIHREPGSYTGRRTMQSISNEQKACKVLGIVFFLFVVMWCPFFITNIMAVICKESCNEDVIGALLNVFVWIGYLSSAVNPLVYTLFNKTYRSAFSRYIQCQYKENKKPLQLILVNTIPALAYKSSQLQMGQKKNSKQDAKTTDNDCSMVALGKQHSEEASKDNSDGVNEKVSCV
row,Structure (SMILES),Difference in Emax (β-arrestin vs Gq)
1,"COc1cc([N+](=O)[O-])c(OC)cc1CCNCc1cccc(C)c1O [25N-NB-2-OH-3-Me (18), 2-({[2-(2,5-dimethoxy-4-nitrophenyl)ethyl]amino}methyl)-6-methylphenol]",81%

# Same assay, conditions: BRET, mean ± SEM
row,Structure (SMILES),5-HT2A β-arrestin Emax (% 5-HT)
1,"COc1cc([N+](=O)[O-])c(OC)cc1CCNCc1cccc(C)c1O [25N-NB-2-OH-3-Me (18), 2-({[2-(2,5-dimethoxy-4-nitrophenyl)ethyl]amino}methyl)-6-methylphenol]",130.7 ± 4.0 % 5-HT

# Same assay, conditions: read-out: 5-HT2A β-arrestin Emax (% 5-HT), BRET, mean ± SEM
row,Structure (SMILES),Emax
1,"COc1cc([N+](=O)[O-])c(OC)cc1CCN [2C-N (1), 2-(2,5-dimethoxy-4-nitrophenyl)ethan-1-amine, reference compound]",83.8 ± 2.5%
2,"COc1cc([N+](=O)[O-])c(OC)cc1CCNCc1cccc2ccccc12 [25N-N-1-Nap (16), [2-(2,5-dimethoxy-4-nitrophenyl)ethyl][(naphthalen-1-yl)methyl]amine]",78.2 ± 1.8%
3,"COc1cc([N+](=O)[O-])c(OC)cc1CCNCc1cccc(F)c1OC [25N-NB-2-MeO-3-F (19), [2-(2,5-dimethoxy-4-nitrophenyl)ethyl][(3-fluoro-2-methoxyphenyl)methyl]amine]",120 ± 3.3%
4,"COc1cc([N+](=O)[O-])c(OC)cc1CCNCc1cccc(C)c1O [25N-NB-2-OH-3-Me (18), 2-({[2-(2,5-dimethoxy-4-nitrophenyl)ethyl]amino}methyl)-6-methylphenol]",131%
5,"COc1cc([N+](=O)[O-])c(OC)cc1CCNCc1cccc(O)c1 [25N-NB-3-OH (21), 3-({[2-(2,5-dimethoxy-4-nitrophenyl)ethyl]amino}methyl)phenol]",119 ± 5.2%

# Biological target: 5-HT2B (Homo sapiens, UniProt P41595)
# Assay: BRET Gq dissociation, 5-HT2B
# Assay type: cell-based
# Design: expressed in transfected cells; host or cells: HEK293T, transient
# Settings: not given
# Chain of 5-HT2B (P41595 whole entry): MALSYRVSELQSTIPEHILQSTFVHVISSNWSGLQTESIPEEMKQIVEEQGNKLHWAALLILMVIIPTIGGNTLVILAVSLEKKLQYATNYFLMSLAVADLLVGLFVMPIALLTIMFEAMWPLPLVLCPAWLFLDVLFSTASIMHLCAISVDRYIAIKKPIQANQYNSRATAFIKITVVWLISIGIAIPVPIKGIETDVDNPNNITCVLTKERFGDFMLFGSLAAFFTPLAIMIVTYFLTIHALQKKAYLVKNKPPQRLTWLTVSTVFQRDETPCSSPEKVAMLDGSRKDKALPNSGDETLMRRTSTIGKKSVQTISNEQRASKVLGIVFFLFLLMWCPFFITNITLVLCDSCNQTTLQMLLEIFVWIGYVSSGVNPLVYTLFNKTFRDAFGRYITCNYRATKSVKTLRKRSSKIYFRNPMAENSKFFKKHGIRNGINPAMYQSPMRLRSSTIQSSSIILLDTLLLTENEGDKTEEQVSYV
Structure (SMILES),EC50,5-HT2B Gq Dissociation (BRET) EMAX ± SEM (%5-HT),5-HT2B Gq Dissociation (BRET) pEC50 ± SEM
"COc1cc([N+](=O)[O-])c(OC)cc1CCN [2C-N (1), 2-(2,5-dimethoxy-4-nitrophenyl)ethan-1-amine, reference compound]",74.1 nM,,
"COc1cc([N+](=O)[O-])c(OC)cc1CCNCc1cccc2ccccc12 [25N-N-1-Nap (16), [2-(2,5-dimethoxy-4-nitrophenyl)ethyl][(naphthalen-1-yl)methyl]amine]",,No activity,No activity
"COc1cc([N+](=O)[O-])c(OC)cc1CCNCc1cccc(C)c1O [25N-NB-2-OH-3-Me (18), 2-({[2-(2,5-dimethoxy-4-nitrophenyl)ethyl]amino}methyl)-6-methylphenol]",,No activity,No activity

# Same assay, conditions: read-out: 5-HT2B Gq Dissociation (BRET) EMAX ± SEM (%5-HT)
row,Structure (SMILES),Emax
1,"COc1cc([N+](=O)[O-])c(OC)cc1CCN [2C-N (1), 2-(2,5-dimethoxy-4-nitrophenyl)ethan-1-amine, reference compound]",87.7 ± 2.8%

# Biological target: T1, 5-HT2C (Homo sapiens, UniProt P28335)
# T1 sequence (P28335 33-458): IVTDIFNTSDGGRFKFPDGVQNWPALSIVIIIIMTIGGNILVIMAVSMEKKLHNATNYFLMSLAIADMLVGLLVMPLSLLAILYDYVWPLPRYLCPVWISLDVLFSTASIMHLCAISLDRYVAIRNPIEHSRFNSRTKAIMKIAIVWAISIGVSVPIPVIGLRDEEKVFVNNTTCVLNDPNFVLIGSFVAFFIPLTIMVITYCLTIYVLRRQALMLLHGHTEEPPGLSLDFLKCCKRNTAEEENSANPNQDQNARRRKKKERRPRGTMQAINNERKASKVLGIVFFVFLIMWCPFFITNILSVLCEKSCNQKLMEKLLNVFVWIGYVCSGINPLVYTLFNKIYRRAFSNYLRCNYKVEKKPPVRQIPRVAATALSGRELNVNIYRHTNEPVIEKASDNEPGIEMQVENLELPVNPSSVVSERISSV
# Assay: BRET Gq dissociation, 5-HT2C
# Assay type: cell-based
# Design: expressed in transfected cells; host or cells: HEK293T, transient
# Settings: not given
row,Structure (SMILES),EC50
1,"COc1cc([N+](=O)[O-])c(OC)cc1CCN [2C-N (1), 2-(2,5-dimethoxy-4-nitrophenyl)ethan-1-amine, reference compound]",12.6 nM
2,"COc1cc([N+](=O)[O-])c(OC)cc1CCNCc1cccc2ccccc12 [25N-N-1-Nap (16), [2-(2,5-dimethoxy-4-nitrophenyl)ethyl][(naphthalen-1-yl)methyl]amine]",18.6 nM
3,"COc1cc([N+](=O)[O-])c(OC)cc1CCNCc1cccc(C)c1O [25N-NB-2-OH-3-Me (18), 2-({[2-(2,5-dimethoxy-4-nitrophenyl)ethyl]amino}methyl)-6-methylphenol]",2.14 nM

# Same assay, conditions: read-out: 5-HT2C Gq Dissociation (BRET) EMAX ± SEM (%5-HT)
row,Structure (SMILES),Emax
1,"COc1cc([N+](=O)[O-])c(OC)cc1CCN [2C-N (1), 2-(2,5-dimethoxy-4-nitrophenyl)ethan-1-amine, reference compound]",78.4 ± 2.5%
2,"COc1cc([N+](=O)[O-])c(OC)cc1CCNCc1cccc2ccccc12 [25N-N-1-Nap (16), [2-(2,5-dimethoxy-4-nitrophenyl)ethyl][(naphthalen-1-yl)methyl]amine]",34.1 ± 4.4%
3,"COc1cc([N+](=O)[O-])c(OC)cc1CCNCc1cccc(C)c1O [25N-NB-2-OH-3-Me (18), 2-({[2-(2,5-dimethoxy-4-nitrophenyl)ethyl]amino}methyl)-6-methylphenol]",45.8 ± 2.4%
